In patent US20250325491A1, “POLYVALENT MOLECULE BASED LIPID NANOPARTICLES FOR NUCLEIC ACID DELIVERY” (Bio-TRIP B.V., priority 2022, published 2025):

Columns and labels:
[1] = system: RAW264.7 macrophage cells; assay: In vitro Firefly luciferase expression (mRNA transfection); format: cell-based; details: 100 ng mRNA per well, 24 hours after transfection (FIG. 14)
Protocol: For the detection of Firefly luciferase expression in vitro, the ONE-Glo™ Luciferase Assay System (Promega) was used. RAW264.7 cells were seeded at a density of 35 k cells per well in a 96-well plate in 100 μL. After approximately 6 hours the RAW264.7 cells were transfected with 10 μL Firefly luciferase mRNA (RIBOPRO) using aNPs or LNPs at a dose of 100 ng mRNA per well. 24 hours after transfection, cell viability was determined by a CellTiter 96® AQueous One Solution Cell Proliferation assay (MTS) (Promega) assay. 10 μL reagent was added to the cells, and absorbance was measured at 495 nm after an hour of incubation (37° C., 5% CO2). Subsequently, the cells were washed three times with 1×PBS, and then 40 μL ONE-Glo™ Luciferase Assay Reagent was added to each well. After complete lysis of the cells, the cell lysates were transferred to a white flat bottom 96-well plate. Luminescence was measured using a Tecan Spark plate reader. Luciferase expression was expressed as luciferase intensity after normalization to the cell viability and subtracting background signal.

[2] = Cryo-TEM of nanoparticles; format: physicochemical; details: siRNA-aNPs containing the polyvalent material
Protocol: Size and shape of the nanoparticles was also assessed by cryo-transmission electron microscopy (cryo-TEM). The surface of 200-mesh lacey carbon supported copper grids (Electron Microscopy Sciences) was plasma charged for 40 seconds using a carbon coater (Cressington 208). Subsequently, 3 μl of nanoparticle sample (˜1 mg protein/ml) was pipetted on a grid and vitrified into a thin film by plunge vitrification in liquid ethane. This step was performed by using an automated robot (FEI Vitrobot Mark IV). Cryo-TEM imaging was acquired on the cryo-transmission electron microscope TITAN (Thermo Fisher), equipped with a field emission gun (FEG), a post-column Gatan imaging filter (model 2002) and a post-GIF 2 k×2 k Gatan CCD camera (model 794). The imaging was performed at 300 kV acceleration voltage in bright-field TEM mode with zero-loss energy filtering at 24,000× magnification (dose rate of 11.8 e−/Å2·s), and 1s acquisition time. Pictures and results are reported in Table S6, FIG. 7, FIG. 8, FIG. 9 (A), FIG. 15.

[3] = mRNA recovery, entrapment and retention by Ribogreen assay; format: physicochemical; details: mRNA-aNPs containing the polyvalent material; for Retention of mRNA: retention = recovery x entrapment
Protocol: The Quant-iT RiboGreen assay (Thermo Fisher) was used to quantify the amount of siRNA loaded inside the formulated particles. The assay was performed using a black 96-well plate. The formulation sample with a theoretical siRNA concentration of 133.3 μg/mL, was diluted 200 times in TE buffer (10 mM Tris-HCl, 1 mM, EDTA, pH 7.5 in DEPC-treated water) and with a TE buffer containing 2% Triton™ X-100, in a black 96-well plate to a total volume of 100 μl. The Triton detergent will disrupt the lipid-based nanoparticles; therefore, all siRNA (retained plus unretained) becomes accessible for the Quant-iT RiboGreen reagent. Controls of siRNA of known concentration (28.6 μg/mL) were diluted 53.3 times in both TE buffer and TE buffer containing 2% Triton in a 96-well plate to a total volume of 100 μl. Next, RiboGreen reagent was diluted 200 times with TE buffer and with TE buffer containing Triton. 100 μl of this dilution was added to each well containing sample or control to bring the total volume in the plate to 200 μl. Subsequently, the samples' fluorescence was measured on a Tecan Spark® microplate reader at an excitation wavelength of 480 nm and emission wavelength of 520 nm.
This was done in a similar way as described for determining the siRNA encapsulation efficiency.

[4] = Dynamic light scattering (DLS) of nanoparticles; format: physicochemical
Protocol: The hydrodynamic diameter of the formulated particles was determined by a number-weighted mean diameter provided by dynamic light scattering (DLS) using a Zetasizer Nano ZS in combination with a Malvern Zetasizer NanoSampler (Malvern Instruments, Worcestshire, UK). The size dispersity was measured as the poly dispersity index (PDI). For the DLS measurements, 100 μl of the formulated nanoparticle was diluted into 700 μl of PBS (137 mM NaCl, 2.7 mM KCl, 10 mM Na2HPO4 and 1.8 mM KH2PO4) and equilibrated at room temperature before the analysis. Each sample was measured 5 times, 10 runs of each 10 seconds, at wavelength 633 nm, without fixing the attenuator and measurement position.

[5] = formulation for in vitro experiment (Table S8)
[6] = formulation for in vivo experiment (Table S8)
[7] = mRNA-aNPs containing the polyvalent material, in vitro experiment formulation
[8] = mRNA-aNPs containing the polyvalent material, in vivo experiment formulation
[9] = siRNA-aNPs containing A2, N/P = 6, High Cholesterol (3.37 mg)
[10] = siRNA-aNPs containing A2, N/P = 6, Low Cholesterol (0.54 mg)
[11] = siRNA-aNPs containing A2, N/P = 6, Low Triglyceride (5 mg)
[12] = siRNA-aNPs containing A2, N/P = 6, No Triglyceride
[13] = siRNA-aNPs containing A2, N/P = 6, phospholipid DMPC
[14] = siRNA-aNPs containing A2, N/P = 6, phospholipid DPPC
[15] = siRNA-aNPs containing A2, N/P = 6, phospholipid DSPC
[16] = siRNA-aNPs containing A2, N/P = 6, phospholipid POPC
[17] = siRNA-aNPs containing A2, composition as Table S3 except N/P = 3
[18] = siRNA-aNPs containing A2, composition as Table S3 except N/P = 9
[19] = siRNA-aNPs containing the polyvalent material (Table S3), SD over individual repeats

With `CCCCCCCCOC(=O)CCN(CCCN(CCCCN(CCCN(CCC(=O)OCCCCCCCC)CCC(=O)OCCCCCCCC)CCCN(CCC(=O)OCCCCCCCC)CCC(=O)OCCCCCCCC)CCCN(CCC(=O)OCCCCCCCC)CCC(=O)OCCCCCCCC)CCC(=O)OCCCCCCCC` [Example A2, G1-ACR-nC8-8] the “Luminescence intensity after Firefly luciferase mRNA transfection, compared with ALC-0315 LNP and aNP controls” value [1] was “outperform the reference LNP and aNP particles”, the “Cryo-TEM Diameter” value ([2]; SD over n individual particles) was 55 ± 11 nm and the “Cryo-TEM PDI” value ([2]; n individual particles) was 0.04. The “Entrapment of mRNA” value [3, 5] was 87%, the “Recovery of mRNA” value [3, 5] was 27% and the “Retention of mRNA” value [3, 5] was 23%. For the same compound, the “Entrapment of mRNA” value [3, 6] was 88%, the “Recovery of mRNA” value [3, 6] was 57% and the “Retention of mRNA” value [3, 6] was 50%. For the same compound, the “DLS Hydrodynamic diameter (number mean)” value [4, 7] was 53 nm, the “DLS PDI” value [4, 7] was 0.27 and the “DLS Hydrodynamic diameter (number mean)” value [4, 8] was 63 nm. The “DLS PDI” value [4, 8] was 0.08, the “DLS Hydrodynamic diameter” value [4, 9] was 103 nm and the “DLS PDI” value [4, 9] was 0.24. The “DLS Hydrodynamic diameter” value [4, 10] was 95 nm, the “DLS PDI” value [4, 10] was 0.07 and the “DLS Hydrodynamic diameter” value [4, 11] was 60 nm. The “DLS PDI” value [4, 11] was 0.08, the “DLS Hydrodynamic diameter” value [4, 12] was 122 nm and the “DLS PDI” value [4, 12] was 0.16. For the same compound, the “DLS Hydrodynamic diameter” value [4, 13] was 91 nm, the “DLS PDI” value [4, 13] was 0.18 and the “DLS Hydrodynamic diameter” value [4, 14] was 61 nm. For the same compound, the “DLS PDI” value [4, 14] was 0.08, the “DLS Hydrodynamic diameter” value [4, 15] was 60 nm and the “DLS PDI” value [4, 15] was 0.07. For the same compound, the “DLS Hydrodynamic diameter” value [4, 16] was 123 nm, the “DLS PDI” value [4, 16] was 0.08 and the “DLS Hydrodynamic diameter” value [4, 17] was 173 nm. For the same compound, the “DLS PDI” value [4, 17] was 0.79, the “DLS Hydrodynamic diameter” value [4, 18] was 62 nm and the “DLS PDI” value [4, 18] was 0.24. The “nanoparticle diameter, all composition variations of Table S7” value ([4]; siRNA-aNPs containing A2, in all cases) was “with diameters smaller than 200 nm are formed”, the “DLS Hydrodynamic diameter (number mean)” value [4, 19] was 57 ± 6 nm and the “DLS PDI” value [4, 19] was 0.16 ± 0.03.
